Test results: patent US6897019B1, “Methods for treating and preventing insulin resistance and related disorders” (priority 1998, dated 2005)
Entries after “also recorded” stand apart in the source; their conditions may differ. Each block holds one compound with its values, some of them ahead of it.

What was measured:
[1] = Ehrman et al. 1997; cited from earlier work
3T3-L1 adipocytes = assay: Lipolysis (glycerol in culture medium) of 3T3-L1 adipocytes with or without TNF-α; type: cell-based, Mouse
Procedure: 3T3-L1 adipocytes used in this example were obtained from 3T3-L1 fibroblasts as follows. 3T3-L1 fibroblasts (ATCC Deposit NO. CL-173, described in U.S. Pat. No. 4,003,789) were cultured in Dulbecco's Modified Eagle's Medium (DMEM) containing 10% bovine calf serum, and induced to differentiate into adipocytes using standard protocols, as described, e.g., in Kohanski et al. (1996) J. Biol. Chem. 261:12272. Adipocytes were used 10-15 days after the differentiation protocol was initiated.
Differentiated 3T3-L1 adipocytes cultured in 12 well plates were incubated overnight in DMEM+0.5% BSA in the absence of serum. The following morning, the cells were incubated in the presence or absence of 2 mM or 20 mM sodium salicylate (NaSal) and treated with recombinant murine TNF-α (m TNF-α; Genzyme; Cambridge, Mass.) with or without 17 μM 15-deoxy-^12,14-PGJ2 (“PGJ2”; Cayman Chemical; Ann Arbor, Mich.) or 10 μM BRL 49653 (“BRL”; Smith Kine Beecham (Hamish Ross) (King of Prussia, Pa.)) for 24 hours. The glycerol content in the culture medium was determined using a colorimetric assay (GPO-Trinder, Sigma, St Louis, […].). Protein content was determined using the BCA (bicinchonic acid) protein assay (Pierce, Rockford, Ill.). The results are indicated as nmol glycerol per mg protein.
Accordingly, 3T3-L1 adipocytes were treated with BRL at 10 μM, 1 μM or 1 nM and TNF-α as described above, and the amount of glycerol was determined after 24 hours.
3T3-L1 adipocytes were treated with TNF-α (2 or 10 ng/ml), TNF-α plus BRL at 10 μM, TNF-α plus PGJ2 at 15 μM, or BRL or PGJ2 alone for 5 days. The media was replaced everyday and collected on day 5 to measure accumulation of glycerol.
[…] The glycerol content in the culture medium was determined as described above.
3T3-L1 adipocytes prepared as described in Example 1 were preincubated with various amounts (0-50 μM) of the p38 kinase inhibitor SB203580 and then treated with 10 ng/ml TNF-α for 24 hours and the amount of glycerol in the culture medium determined as described above. […]

ERK1/2 = assay: ERK 1/2 kinase assay (MBP substrate) on extracts of treated 3T3-L1 adipocytes; type: cell-based, Mouse
Procedure: In this example, 3T3-L1 cells were treated as described in Example 2, and cell extracts were used in an ERK 1/2 kinase assay, using MBP (myelin basic protein) as a substrate. The assay used is described in Boulton et al. (1991) Cell Reg. 2: 357.
(§1) 3T3-L1 adipocytes prepared as described in Example 1 were pretreated for 3 hours with or without 20 mM NaSal or 100 μM PD98059 and then treated for 15 minutes with or without 10 ng/ml mTNF-α and with or without 10 μM BRL. Cell extracts were then prepared and used in ERK 1/2 kinase and JNK-1 kinase assays, as described above.
(§2) 3T3-L1 cells were pretreated for 3 days with 17 μM of PGJ2 and then for 15 minutes with 10 ng/ml TNF-α. The amount of phosphorylated (thus activated) JNK-1, ERK1/2, and p38 was determined by Western blot using an antibody specifically recognizing phosphorylated forms of the proteins. As a control, the total amount of JNK-1, ERK1/2 and p38 protein was determined by Western blot using an antibody recognizing the phosphorylated and non phosphorylated forms of the protein. The activity of ERK1/2 and JNK kinases was also determined in a kinase assay using MBP and a portion of c-jun, respectively, as substrate.

human adipocytes = assay: TNF-α induced lipolysis in primary cultures of human adipocytes; type: cell-based; settings: PD98059 72 hours pretreatment, then 24 hours 100 ng/ml human TNF-α
Procedure: Similar results were also obtained using primary cultures of human adipocytes. Primary cultures of human adipocytes, obtained from Zen-Bio were pretreated for 72 hours with PD98059 and then for 24 hours with 100 ng/ml of human TNF-α.

JNK-1 = JNK-1 kinase assay (c-jun substrate) on extracts of treated 3T3-L1 adipocytes; type: cell-based, Mouse; settings: 3 hours pretreatment with 20 mM NaSal or 100 μM PD98059, then 15 minutes 10 ng/ml TNF-α
Procedure: 3T3-L1 adipocytes were pretreated for 3 hours with or without 20 mM NaSal, with or without 100 μM MAP kinase kinase (MEK) inhibitor PD98059 (Biomol; Cat. No. EI-360) and then for 15 minutes with 10 ng/ml mTNF-α. JNK-1 kinase assays were then performed with extracts of each of these cell cultures on an N-terminal portion of c-jun, as described in Derjarde et al. (1994) Cell 76: 1025.
as §1, §2

JNK = settings: FS4 fibroblasts; Schwenger et al. 1997; cited from earlier work
p42/1p44 MAP kinases = settings: FS4 fibroblasts; Schwenger et al. 1996; cited from earlier work
[2] = PD98059, pretreatment for 3 hours

Compound: Cc1c(C)c2c(c(C)c1O)CCC(C)(COc1ccc(CC3SC(=O)NC3=O)cc1)O2 (centres unmarked) [troglitazone, 5-[[4-[(3,4-dihydro-6-hydroxy-2,5,7,8-tetramethyl-2H-1-benzopyran-2-yl)methoxy]phenyl]methyl]-2,4-thiazolidinedione]
efficacy in PCOS [1]: effective

increase of MBP phosphorylation in the presence of TNF-α and inhibitor, factor (ERK1/2; 100 μM PD98059 3 hours, then 15 minutes 10 ng/ml TNF-α): less than two | inhibition of MAP kinase activation (ERK1/2; 100 μM PD98059 (Example 6, FIG. 6)): at least 90% | TNF-α induced ERK1/2 activation (kinase activity) (ERK1/2; 3 hours pretreatment with 20 mM NaSal or 100 μM PD98059, then 15 minutes 10 ng/ml TNF-α): inhibited
Compound: COc1cccc(-c2cc(=O)c3ccccc3o2)c1N [PD98059]
decrease of TNF-α induced lipolysis, factor (3T3-L1 adipocytes; 100 μM PD98059, 24 hours pretreatment, then TNF-α 24 hours): less than 2 factor | reduction of TNF-α induced lipolysis (3T3-L1 adipocytes; [2]): about 76% | reduction of TNF-α induced lipolysis, factor (3T3-L1 adipocytes; [2]): about 3 factor | TNF-α induced lipolysis in human cells (human adipocytes): reduced

Compound: O=C([O-])c1ccccc1O.[Na+] [NaSal, sodium salicylate]
ability of TNF-α to increase lipolysis (3T3-L1 adipocytes; 2 mM NaSal): partially reduced | inhibition of glycerol production, factor (3T3-L1 adipocytes; 2 mM NaSal, induced by 10 ng/ml TNF-α, 24 hours): ~2 factor | ability of TNF-α to increase lipolysis (3T3-L1 adipocytes; 20 mM NaSal): completely blocked | inhibition of TNF-α induced lipolysis (3T3-L1 adipocytes; 2 or 20 mM NaSal, TNF-α 2 ng/ml (Panel A) or 20 ng/ml (Panel B), 24 hours): significantly inhibited | inhibition of glycerol production, factor (3T3-L1 adipocytes; induced by 2 ng/ml TNF-α, NaSal 2 or 20 mM, 24 hours): 3-4 factor | TNF-α induced JNK-1 activation (kinase activity) (JNK-1): significantly reduced; also recorded: decreases | inhibition of ERK1/2 activation (ERK1/2; 20 mM NaSal 3 hours, then 15 minutes 10 ng/ml TNF-α): about two | inhibition of TNF-induced activation of JNK (JNK): capable of inhibiting | inhibition of TNF-induced activation of p42/1p44 MAP kinases (p42/1p44 MAP kinases): capable of inhibiting
